From patent publication US7514438B2, “Melanin concentrating hormone receptor antagonist” (Amgen, Inc., priority 2003, dated 2009) come the findings set out here.

The target of test [1] is T1, rat MCH 1 receptor (rMCH1R) (Rattus norvegicus, UniProt P97639).
T1 construct: expressed in transfected cells; host or cells: HEK 293 (membranes)
Nature of the test: 125I-MCH ligand binding assay, rMCH. The settings on record: HEK 293 membranes, 0.2 nM 125I native-MCH; 100 μM or less list; read-out: IC50 in the rMCH binding assay. Here is the method:
(§1) Human embryonic kidney cells (293 total) expressing either human, rat, or mouse MCH receptor were harvested from 150 mm culture dishes using PBS. Spinning at 1500 rpm for 2 minutes initially pelleted cells. The resulting pellet was then homogenized in 15 mL ice cold sucrose buffer (25 mM HEPES, 0.3 M sucrose, pH 7.4) with a motorized, glass fitted, Teflon® homogenizer. The homogenate was centrifuged at 48,000×g at 4° C. for 10 minutes, resuspended in 15 mL assay buffer (25 mM HEPES, 10 mM mgCl2, 0.2% BSA, 0.1 mg/mL STI, 0.1 mg/mL Pefabloc®, 1 μM Phosphoramidon, pH 7.4) with a Tissue-Tearor® (Biospec Products) and centrifuged again at 48,000×g for 10 minutes. The pellet was homogenized for a third time in 15 mL assay buffer using the Tissue-Tearor® and again centrifuged at 48,000×g for 10 minutes. The resulting pellet was resuspended in assay buffer at a wet weight concentration of 10-20 mg/mL.
(§2) Binding assays were determined as described below using mouse, rat or human MCH 1 receptors (mMCH1R, rMCH1R, and hMCH1R, respectively) expressed in HEK 293; IC50 values were calculated.
(§3) Binding assays were performed in 96-well U-bottom plates. Membranes (100 μg tissue) were incubated at 30° C. for 90 minutes in assay buffer with various peptides in the presence of 0.2 nM ^125I native-MCH (Perkin-Elmer Life Sciences, Boston, Mass.) in 100 μL total volume. Non-specific binding was assessed in the presence of 1 μM cold native-MCH. The reaction was terminated by rapid filtration through Unfilter-96 GF/C glass fiber filter plates (FilterMate® 196 Harvester, Packard Instrument Co., Meriden, Conn.) pre-soaked in PBS/0.5% BSA, followed by three washes with 300 μL ice-cold water. Bound radioactivity was determined using a TopCount® microplate scintillation and luminescence counter (Packard Instrument Co., Meriden, Conn.). Nonlinear regression analyses of drug concentration curves were performed using GraphPad Prism® (GraphPad Software, Inc., San Diego, Calif.).

Test [2] has as its target T2, human MCH 1 receptor (hMCH1R) (Homo sapiens, UniProt Q99705).
T2 construct: expressed in transfected cells; host or cells: HEK 293 (membranes)
As to the kind of experiment: 125I-MCH ligand binding assay, hMCH. To be noted: HEK 293 membranes, 0.2 nM 125I native-MCH; 100 μM or less list; read-out: IC50 in the hMCH binding assay. Here is the method: as §1, §2, §3

T1 sequence (P97639 whole entry): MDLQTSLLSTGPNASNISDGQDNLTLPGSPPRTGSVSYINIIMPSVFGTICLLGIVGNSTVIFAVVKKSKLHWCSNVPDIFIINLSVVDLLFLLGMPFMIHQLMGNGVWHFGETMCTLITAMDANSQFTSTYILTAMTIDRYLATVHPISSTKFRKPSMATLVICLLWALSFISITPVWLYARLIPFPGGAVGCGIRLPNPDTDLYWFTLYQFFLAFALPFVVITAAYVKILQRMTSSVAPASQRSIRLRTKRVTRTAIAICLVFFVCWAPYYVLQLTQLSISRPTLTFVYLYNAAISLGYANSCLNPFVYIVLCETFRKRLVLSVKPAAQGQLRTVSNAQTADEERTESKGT
T2 sequence (Q99705 whole entry): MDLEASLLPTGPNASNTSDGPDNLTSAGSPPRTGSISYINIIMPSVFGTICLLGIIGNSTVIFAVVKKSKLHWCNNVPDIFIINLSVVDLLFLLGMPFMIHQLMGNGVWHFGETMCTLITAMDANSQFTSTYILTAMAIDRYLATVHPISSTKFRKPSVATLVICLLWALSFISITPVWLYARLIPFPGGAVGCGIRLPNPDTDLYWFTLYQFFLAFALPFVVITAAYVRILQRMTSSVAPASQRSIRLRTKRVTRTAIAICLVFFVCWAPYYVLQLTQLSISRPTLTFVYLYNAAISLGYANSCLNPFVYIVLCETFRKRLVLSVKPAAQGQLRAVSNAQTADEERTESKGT

Take `Cc1cccc([C@@H](c2nnnn2-c2c(C)cccc2C)N2CCN(C/C=C/c3ccccc3)CC2)n1` (racemic) [Compound 71, 1-[[1-(2,6-dimethylphenyl)-1H-tetrazol-5-yl]-(6-methylpyridin-2-yl)methyl]-4-(3-phenylallyl)piperazine]: the IC50 in test [1] and in test [2] was at most 100 µM each time. As to `Cc1cccc(C)c1-n1nnnc1[C@H](c1ccc(C(F)(F)F)cc1)N1CCN(C/C=C/c2ccccc2)CC1` (racemic) [Compound 63, 1-[[1-(2,6-dimethylphenyl)-1H-tetrazol-5-yl]-(4-trifluoromethylphenyl)methyl]-4-(3-phenylallyl)piperazine], the IC50 in test [1] and in test [2] was at most 100 µM throughout.

Regarding `C(=C\c1ccccc1)/CN1CCN([C@@H](c2ccccc2)c2nnnn2CCc2ccccc2)CC1` (racemic) [Compound 35, 1-[(1-phenethyl-1H-tetrazol-5-yl)phenylmethyl]-4-(3-phenylallyl) piperazine], the IC50 in test [1] and in test [2] was at most 100 µM each time. With `CCOC(=O)Cn1nnnc1[C@H](c1ccccc1)N1CCN(C/C=C/c2ccccc2)CC1` (racemic) [Compound 21], the IC50 in test [1] and in test [2] was at most 100 µM throughout. As to `COc1ccccc1[C@@H](c1nnnn1-c1c(C)cccc1C)N1CCN(C/C=C/c2ccccc2)CC1` (racemic) [Compound 67, 1-[[1-(2,6-dimethylphenyl)-1H-tetrazol-5-yl]-(2-methoxyphenyl)methyl]-4-(3-phenylallyl)piperazine], the IC50 in test [2] was at most 100 µM. Regarding `COC(=O)C(Cc1c[nH]c2ccccc12)n1nnnc1[C@H](c1ccccc1)N1CCN(C/C=C/c2ccccc2)CC1` (stereo in doubt) [Compound 31, 3-(1H-indol-3-yl)-2-(5-{phenyl-[4-(3-phenylallyl)piperazin-1-yl]methyl}tetrazol-1-yl)propionic acid methyl ester], the IC50 in test [1] and in test [2] was at most 100 µM throughout. Take `Cc1cccc(C)c1-n1nnnc1[C@H](c1ccccc1OCc1ccccc1)N1CCN(C/C=C/c2ccccc2)CC1` (racemic) [Compound 66, 1-{(2-benzyloxyphenyl)-[1-(2,6-dimethylphenyl)-1H-tetrazol-5-yl]methyl}-4-(3-phenylallyl)piperazine]: the IC50 in test [2] was at most 100 µM. Still for that read-out and setting: then `COC(=O)Cn1nnnc1[C@H](c1ccccc1)N1CCN(C/C=C/c2ccccc2)CC1` (racemic) [Compound 16, (5-{phenyl-[4-(3-phenylallyl)piperazin-1-yl]methyl}tetrazol-1-yl)acetic acid methyl ester], with at most 100 µM.

As to `Cc1cccc(C)c1-n1nnnc1[C@H](c1cccc2c1OCO2)N1CCN(C/C=C/c2ccccc2)CC1` (racemic) [Compound 81, 1-{benzo[1,3]diaxol-4-yl-[1-(2,6-dimethylphenyl)-1H-tetrazol-5-yl]methyl}-4-(3-phenylallyl)piperazine], the IC50 in test [1] and in test [2] was at most 100 µM in each case.

With `Cc1ccc(Oc2cccc([C@@H](c3nnnn3-c3c(C)cccc3C)N3CCN(C/C=C/c4ccccc4)CC3)c2)cc1` (racemic) [Compound 73, 1-[[1-(2,6-dimethylphenyl)-1H-tetrazol-5-yl]-(3-p-tolyloxyphenyl)methyl]-4-(3-phenylallyl)piperazine], the IC50 in test [1] and in test [2] was at most 100 µM throughout. As for `Cc1cccc(C)c1-n1nnnc1[C@H](c1cccnc1)N1CCN(C/C=C/c2ccccc2)CC1` (racemic) [Compound 74, 1-{[1-(2,6-dimethylphenyl)-1H-tetrazol-5-yl]pyridin-3-ylmethyl}-4-(3-phenylallyl)piperazine], the IC50 in test [1] and in test [2] was at most 100 µM in each case.

`CCCCn1nnnc1[C@H](c1ccccc1)N1CCN(C/C=C/c2ccccc2)CC1` (racemic) [Compound 17, 1-[(1-butyl-1H-tetrazol-5-yl)phenylmethyl]-4-(3-phenylallyl)piperazine]: the IC50 in test [2] was at most 100 µM. Regarding `CC(C)(C)n1nnnc1[C@H](c1ccccc1)N1CCN(C/C=C/c2ccccc2)CC1` (racemic) [Compound 14, 1-[(1-tert-butyl-1H-tetrazol-s-yl)phenylmethyl]-4-(3-phenylallyl)piperazine], the IC50 in test [1] and in test [2] was at most 100 µM in each case. `Cc1cccc(C)c1-n1nnnc1C1(N2CCN(C/C=C/c3ccccc3)CC2)CCN(Cc2ccccc2)CC1` [Compound 91, 1-{1-benzyl-4-[1-(2,6-dimethylphenyl)-1H-tetrazol-5-yl]piperidin-4-yl}-4-(3-phenylallyl)piperazine]: in test [2], the IC50 is at most 100 µM.

`C(=C\c1ccccc1)/CN1CCN([C@@H](c2ccccc2)c2nnnn2CCc2c[nH]c3ccccc23)CC1` (racemic) [Compound 29, 3-[2-(5-{phenyl-[4-(3-phenylallyl)piperazin-1-yl]methyl}tetrazol-1-yl)ethyl]-1H-indole]: the IC50 in test [1] and in test [2] was at most 100 µM each time.

On to `CC(C)(C)CC(C)(C)n1nnnc1[C@H](c1ccccc1)N1CCN(C/C=C/c2ccccc2)CC1` (racemic) [Compound 22, 1-(3-phenylallyl)-4-{phenyl-[1-(1,1,3,3-tetramethylbutyl)-1H-tetrazol-5-yl]methyl}piperazine], for which the concentration for half-maximal inhibition (IC50) in test [1] and in test [2] was at most 100 µM each time.

Consider `Cc1cccc(C)c1-n1nnnc1[C@H](c1ccccc1C#N)N1CCN(C/C=C/c2ccccc2)CC1` (racemic) [Compound 80, 2-{[1-(2,6-dimethylphenyl)-1H-tetrazol-5-yl]-[4-(3-phenylallyl)piperazin-1-yl]methyl}benzonitrile], for which the IC50 in test [1] and in test [2] was at most 100 µM in each case.

Consider `Cc1cccc(C)c1-n1nnnc1[C@H](c1ccc(F)cc1)N1CCN(C/C=C/c2ccccc2)CC1` (racemic) [Compound 58, 1-[[1-(2,6-dimethylphenyl)-1H-tetrazol-5-yl]-(4-fluorophenyl)methyl]-4-(3-phenylallyl)piperazine], for which the IC50 in test [1] and in test [2] was at most 100 µM in each case. With `Clc1ccc(Cn2nnnc2[C@H](c2ccccc2)N2CCN(C/C=C/c3ccccc3)CC2)cc1Cl` (racemic) [Compound 30, 1-{[1-(3,4-dichlorobenzyl)-1H-tetrazol-5-yl]phenylmethyl}-4-(3-phenylallyl)piperazine], the IC50 in test [1] and in test [2] was at most 100 µM each time. On to `C(=C\c1ccccc1)/CN1CCN([C@@H](c2ccccc2)c2nnnn2-c2cccc3c2CCCC3)CC1` (racemic) [Compound 38, 1-(3-phenylallyl)-4-{phenyl-[1-(5,6,7,8-tetrahydronaphthalen-1-yl)-1H-tetrazol-5-yl]methyl}piperazine], for which the IC50 in test [1] and in test [2] was at most 100 µM throughout. In the case of `Cc1cccc(C)c1-n1nnnc1[C@H](c1ccc(-c2cccc(C(F)(F)F)c2)o1)N1CCN(C/C=C/c2ccccc2)CC1` (racemic) [Compound 68, 1-{[1-(2,6-dimethylphenyl)-1H-tetrazol-5-yl]-[5-(3-trifluoromethylphenyl)furan-2-yl]methyl}-4-(3-phenylallyl)piperazine], the IC50 in test [1] and in test [2] was at most 100 µM in each case. For the compound `C(=C\c1ccccc1)/CN1CCN([C@@H](c2ccccc2)c2nnnn2Cc2ccccc2)CC1` (racemic) [Compound 15, 1-[(1-benzyl-1H-tetrazol-5-yl)phenylmethyl]-4-(3-phenylallyl)piperazine], the IC50 in test [1] and in test [2] was at most 100 µM throughout. Take `FC(F)(F)c1cccc([C@@H](c2nnnn2-c2c(Cl)cccc2Cl)N2CCN(C/C=C/c3ccccc3)CC2)c1` (racemic) [Compound 164, 1-[[1-(2,6-dichlorophenyl)-1H-tetrazol-5-yl]-(3-trifluoromethylphenyl)methyl]-4-(3-phenylallyl)piperazine]: the IC50 in test [1] and in test [2] was at most 100 µM throughout.

As to `C(=C\c1ccccc1)/CN1CCN([C@@H](c2ccccc2)c2nnnn2CCCN2CCOCC2)CC1` (racemic) [Compound 42], the IC50 in test [2] is at most 100 µM. The same measure, in the same setting: then `Cc1cccc(C)c1-n1nnnc1[C@H](COCCc1ccccc1)N1CCN(C/C=C/c2ccccc2)CC1` (racemic) [Compound 85, 1-{1-[1-(2,6-dimethylphenyl)-1H-tetrazol-5-yl]-2-phenethyloxyethyl}-4-(3-phenylallyl)piperazine], with at most 100 µM.

The IC50 is the concentration at which inhibition is half-maximal.
